Laboratory results from patent US8394991B2, “Phenoxy substituted phenylamidine derivatives and their use as fungicides” (Bayer Cropscience AG, priority 2007, dated 2013).

Assays:
[1] = system: Erysiphe graminis f. sp. Hordei; assay: Erysiphe test (barley) / protective; assay type: in vivo; conditions: Blumeria graminis, 168 h; barley plants, protective spray, 500 ppm active compound, evaluation 7 days after inoculation; read-out: efficacy
Procedure: Solvent: 49 parts by weight of N,N-dimethylformamide
Emulsifier: 1 part by weight of alkylaryl polyglycol ether
To produce a suitable preparation of active compound, 1 part by weight of N-ethyl-N-methyl-N′-[4-phenoxy-2,5-xylyl]formamidine (according to formula I-a) is mixed with the stated amounts of solvent and emulsifier, and the concentrate is diluted with water to the desired concentration.
To test for protective activity, young cereal plants are sprayed with the active compound preparation at the stated application rate. 1 day after the treatment, the plants are inoculated with spores of Erysiphe graminis f. sp. Hordei. The plants are then placed in a greenhouse at 70% relative atmospheric humidity and a temperature of 18° C.
Evaluation is carried out 7 days after the inoculation. 0% means an efficacy which corresponds to that of the control, whereas an efficacy of 100% means that no infection is observed.

Molecule	logP (logP (acidic, pH 2.3); pH 2.3)	pest or weed control at 500 ppm [1]	logP acidic (logP (acidic, pH 2.3); acidic)	log P (pH2.3) (logP (acidic, pH 2.3); pH 2.3)
COC(C)(C)c1cccc(Oc2cc(C)c(/N=C/N3CC(C)OC(C)C3)cc2C)c1 (stereo not shown) [Compound 65-2, N-[(1E)-(2,6-dimethyl-morpholin-4-yl)methylene]-4-[3-(1-methoxy-1-methylethyl)phenoxy]-2,5-dimethylaniline]	2.24	–	–	–
CCN(C)C=Nc1cc(C)c(Oc2cccc(C[Si](C)(C)C)c2)cc1C [Compound 63, N′-(2,5-dimethyl-4-{3-[(trimethylsilyl)methyl]-phenoxy}phenyl)-N-ethyl-N-methylimido-formamide]	2.93	≥ 70%	–	–
CCN(C)C=Nc1cc(C)c(Oc2cccc(CCCO)c2)cc1C [Compound 57-1, N-ethyl-N′-{4-[3-(3-hydroxypropyl)phenoxy]-2,5-dimethylphenyl}-N-methylimidoformamide]	1.56	–	–	–
CCN(C)C=Nc1cc(C)c(Oc2cccc(C3CC3)c2)cc1C [Compound 64, N′-[4-(3-cyclopropylphenoxy)-2,5-dimethylphenyl]-N-ethyl-N-methylimido-formamide]	2.35	≥ 70%	–	–
Cc1cc(Oc2cccc(CCCO)c2)c(C)cc1N=CN(C)C(C)C [Compound 57-2, N′-{4-[3-(3-hydroxypropyl)phenoxy]-2,5-dimethylphenyl}-N-isopropyl-N-methylimidoformamide]	1.67	≥ 70%	–	–
CCN(C)C=Nc1cc(C)c(Oc2cccc(C(C)(CC)OC)c2)cc1C (stereo not shown) [Compound 8, N-ethyl-N′-{4-[3-(1-methoxy-1-methylpropyl)phenoxy]-2,5-dimethylphenyl}-N-methylimidoformamide]	–	≥ 70%	–	–
Cc1cc(/N=C/N2CCCCC2C)c(Cl)cc1Oc1cccc(C(C)C)c1 (stereo not shown) [Compound 61-4, 2-chloro-4-(3-isopropylphenoxy)-5-methyl-N-[(1E)-(2-methylpiperidin-1-yl)methylene]aniline]	2.67	–	–	–
CCN(C)C=Nc1cc(C)c(Oc2cccc(CC(C)(C)C)c2)cc1C [Compound 62, N′-{4-[3-(2,2-dimethylpropyl)phenoxy]-2,5-dimethylphenyl}-N-ethyl-N-methylimidoformamide]	2.74	≥ 70%	–	–
CCCN(C)C=Nc1cc(C)c(Oc2cccc(C(C)(C)OC)c2)cc1C [Compound 65-1, N′-{4-[3-(1-methoxy-1-methylethyl)-phenoxy]-2,5-dimethylphenyl}-N-methyl-N-propyl imidoformamide]	–	–	2.50	–
Cc1cc(N)c(Cl)cc1Oc1cccc(C(C)C)c1 [4-(3-Isopropylphenoxy)-2-chloro-5-methylaniline]	4.68	–	–	–
Cc1cc(N=CN(C)C(C)C)c(Cl)cc1Oc1cccc(C(C)C)c1 [Compound 61-2, N′-[2-chloro-4-(3-isopropylphenoxy)-5-methylphenyl]-N-isopropyl-N-methylimidoformamide]	2.54	≥ 70%	–	–
4-(3-Isopropylphenoxy)-2-chloro-5-methylnitrobenzene	–	–	–	5.54
CCN(C)C=Nc1cc(C)c(Oc2cccc(C(C)(C)OC)c2)cc1C [Compound 37, N-ethyl-N′-{4-[3-(1-methoxy-1-methylethyl)phenoxy]-2,5-dimethylphenyl}-N-methylimidoformamide]	2.14	≥ 70%	–	–
CCN(C)C=Nc1cc(C)c(Oc2cccc(C(C)C)c2)cc1Cl [Compound 61-1, N′-[2-chloro-4-(3-isopropylphenoxy)-5-methylphenyl]-N-ethyl-N-methylimidoformamide]	2.38	≥ 70%	–	–
Cc1cc(/N=C/N2CCCCC2)c(Cl)cc1Oc1cccc(C(C)C)c1 [Compound 61-3, 2-chloro-4-(3-isopropylphenoxy)-5-methyl-N-[(1E)-piperidin-1-ylmethylene]aniline]	2.62	–	–	–
